Data taken from US20240228465A1, “SUBSTITUTED PYRIDINE N-OXIDE DERIVATIVES USEFUL AS A FACTOR XIA INHIBITORS” (Janssen Pharmaceutica NV, priority 2021, published 2024).
Read-outs that look alike come from different tables or passages of the source.

Legend:
[1] = target: Factor XIa (Homo sapiens, UniProt P03951); test: Factor XIa inhibition assay utilizing a fluorophore-quencher pair peptide substrate (FLINT); format: biochemical
Text: Biological Example 1: Factor XIa Inhibition Assay Utilizing a Fluorophore-Quencher Pair Peptide Substrate
A fluorescence intensity (FLINT) based assay was used to monitor inhibition of Factor XIa. The peptide substrate, 5Fam-KLTRAETV-K5Tamra (purchased from New England Peptide) was chosen based on the […]. Conversion of zymogen […]. The custom peptide used in this assay was based on the Arg146 cleavage site of FXI. The peptide substrate was designed with a fluorophore-quencher pair, where the fluorescence is quenched until FXIa cleaves the 8-mer peptide after the Arg residue. The substrate KM was fit to a substrate inhibition model whereby kcat=0.86 s^−1, KM=12.4 μM, Ki=61.6 μM with an enzymatic efficiency, and kcat/KM=69523 M^−1s^−1.
The Factor XIa FLINT assay was used with the following 5Fam-KLTRAETV-K5Tamra assay buffer: 50 mM Tris, pH 7.5, 100 mM NaCl, 5 mM CaCl2, 0.1 mg/mL BSA, 0.03% CHAPS. Assay buffer was prepared by mixing all ingredients fresh. 5Fam-KLTRAETV-K5Tamra peptide substrate was first prepared at 10 mM in 100% DMSO, then diluted to 3 mM in 100% DMSO. Assay buffer was then added directly to the 3 mM stock of substrate to prepare the 30 μM 2× working concentration (15 μM final concentration). The 2× Factor XIa stock solution was prepared by diluting 6.562 μM stock in 1× assay buffer for a […].
Test compound(s) were run in an 11-point, 3-fold serial dilution with a final top compound concentration of 100 nM. Final DMSO in assay was 2%. FXIa was preincubated with compound for 30-minutes and then substrate was added to initiate the reaction. The assay was run with either end point (EP) reads at 30 min or kinetic (KIN) reads at 5 min intervals over 30 minutes. The time course was linear using 100 μM FXIa greater than 30 minutes. More specifically, the assay was run as follows: • 100 nL of 0.01 mM test compound was dispensed into black 384-well non-binding Greiner BioOne 784900 plate for 0.1 μM final concentration; • 5 μL of 1× assay buffer was dispensed to column 24 (low control) and 5 μL 2× Factor XIa solution was dispensed to columns 1-23 (column 23 high control); • the plate was centrifuged with a “cover” plate at 500 rpm for 1 min • the plate was pre-incubated for 30 minutes at room temperature with plate covered; • 5 μL of 2× 5Fam-KLTRAETV-K5Tamra peptide substrate was dispensed into the entire plate, columns 1-24; • the plate was centrifuged with a “cover” plate at 500 rpm for 1 min; • the plate was read monitoring fluorescence intensity on the BMG PHERAStar at room temperature, using fluorescence module 485 nm/520 nm.
(§1) Percent inhibition (IC50) curves were generated per compound tested, and data was analyzed using a 4-parameter logistic fit using GeneData Screener. The relative fluorescence unit (RFU) values were normalized to percent inhibition using the following equation:
[formula] • where LC—low control=mean signal of no Factor XIa or 100% inhibition of Factor XIa; HC—high control=mean signal of Factor XIa+5Fam-KLTRAETV-K5Tamra peptide substrate with DMSO only.
(§2) An 11-point dose response curve for the test compound(s) was generated using GENDATA to determine IC50 value based on the following equation:
(§3) [formula] • where Y is the % inhibition in the presence of X inhibitor concentration, Top=high control=mean signal of Factor XIa+5Fam-KLTRAETV-K5Tamra peptide substrate with DMSO only; Bottom=low control—mean signal of no Factor XIa or 100% inhibition of Factor XIa; HillSlope—Hill coefficient; and IC50=concentration of compound with 50% inhibition in relation to top/high control.
Representative compounds of formula (I) of the present invention were tested according to the procedure described in Biological Example 1 and Biological Example 2 above, with results as listed in Table 3, below. […]

[2] = target: human plasma kallikrein (Homo sapiens, UniProt P03952); test: Kallikrein inhibition assay utilizing a quenched AMC peptide substrate (FLINT); format: biochemical
human plasma kallikrein, sequence (P03952 391-638 limits assumed): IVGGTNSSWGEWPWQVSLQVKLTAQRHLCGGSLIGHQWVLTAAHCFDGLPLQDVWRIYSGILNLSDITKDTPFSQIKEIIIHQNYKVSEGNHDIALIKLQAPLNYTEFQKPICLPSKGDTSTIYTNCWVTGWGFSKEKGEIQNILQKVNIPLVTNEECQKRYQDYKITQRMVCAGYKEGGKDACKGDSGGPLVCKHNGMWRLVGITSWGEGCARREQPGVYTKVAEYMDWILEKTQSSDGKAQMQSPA
human plasma kallikrein, sequence (P03952 20-390 partner limits assumed): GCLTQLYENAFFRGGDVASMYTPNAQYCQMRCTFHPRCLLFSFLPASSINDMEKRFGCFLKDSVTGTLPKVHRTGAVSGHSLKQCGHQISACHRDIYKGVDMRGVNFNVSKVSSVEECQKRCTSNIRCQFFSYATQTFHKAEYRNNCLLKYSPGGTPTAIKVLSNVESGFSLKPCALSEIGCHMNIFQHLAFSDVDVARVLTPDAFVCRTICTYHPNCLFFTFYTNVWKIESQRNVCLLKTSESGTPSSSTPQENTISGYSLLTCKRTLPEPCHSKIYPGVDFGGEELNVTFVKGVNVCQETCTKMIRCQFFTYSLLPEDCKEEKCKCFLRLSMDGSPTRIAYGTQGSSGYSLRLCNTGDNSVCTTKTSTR
Procedure: Biological Example 2: Kallikrein Inhibition Assay Utilizing a Quenched AMC Peptide Substrate
A fluorescence intensity (FLINT) based assay was used to monitor inhibition of human plasma kallikrein. The peptide substrate, Z-Gly-Pro-Arg-AMC (Purchased from Bachem; Catalog #I-1150) was chosen based on its relatively low KM for kallikrein which enables running the assay at lower substrate concentrations to control background fluorescence. The kinetic parameters for this substrate were determined by fitting titration data to the Michaelis-Menten equation yielding a KM=40 μm, kcat=0.76 s^−1, and kcat/KM=18932 M^−1s^−1.
The Kallikrein FLINT assay was used with the following Z-Gly-Pro-Arg-AMC assay buffer: 50 mM Tris, pH 7.5, 100 mM NaCl, 5 mM CaCl2, 0.1 mg/mL BSA, 0.03% CHAPS. Assay buffer was prepared by mixing all ingredients fresh. 2× Z-Gly-Pro-Arg-AMC peptide substrate was prepared by diluting 10 mM stock into 1× assay buffer for a 100 μM working concentration (50 μM final concentration). The 2× kallikrein stock solution was prepared by diluting 14.76 μM stock in 1× assay buffer for a 4 nM working stock solution (2 nM final concentration).
Test compound(s) were run in an 11-point, 3-fold serial dilution with a final top compound concentration of 1 μM. Final DMSO in assay was 2%. Plasma kallikrein was pre-incubated for 30-minute with compound and then 50 μM substrate was added to initiate the reaction. The assay was run with either end point (EP) reads at 30 min or kinetic (KIN) reads at 5 min intervals over 30 minutes. The time course was linear using 2 nM kallikrein greater than 30 minutes. More specifically, the assay was run as follows: • 100 nL of 0.1 mM test compound was dispensed into black 384-well non-binding Greiner BioOne 784900 plate for 1 μM final concentration; • 5 μL of 1× assay buffer was dispensed to columns 24 (low control) and 5 μL 2× human kallikrein enzyme solution was dispensed to columns 1-23 (column 23 high control); • the plate was centrifuged with a “cover” plate at 500 rpm for 1 min • the plate was pre-incubated for 30 minutes at room temperature with plate covered; • 5 μL of 2× Z-Gly-Pro-Arg-AMC peptide substrate was dispensed into the entire plate, columns 1-24; • the plate was centrifuged with a “cover” plate at 500 rpm for 1 min; • the plate was read monitoring fluorescence intensity on the BMG PHERAStar at room temperature, using fluorescence module 340 nm/440 nm.
as §1
% inhibition=((HC−LC)−(compound−LC)/(HC−LC))*100 • where LC—low control=mean signal of human kallikrein enzyme or 100% inhibition of human kallikrein enzyme; HC—high control=mean signal of Factor XIa+Z-Gly-Pro-Arg-AMC peptide substrate with DMSO only.
as §2
as §3, with “Y=Bottom+(Top−Bottom)/(1+10^((log IC50−X)*HillSlope))” for “[formula]”, “human kallikrein enzyme+Z-Gly-Pro-Arg-AMC” for “Factor XIa+5Fam-KLTRAETV-K5Tamra”, “human kallikrein enzyme” for “Factor XIa”, “human kallikrein enzyme;” for “Factor XIa;”
Representative compounds of formula (I) of the present invention were tested according to the procedure described in Biological Example 1 and Biological Example 2 above, with results as listed in Table 3, below. Results listed in the (ER) column were measured using endpoint reads where a single fluorescence reading was measured for each well at a 30 min timepoint. […]

[3] = kinetic reads, unit μM, read-out: Kallikrein (KIN) IC50
[4] = kinetic reads at 5 min intervals over 30 min, 30 min preincubation, read-out: FXIa (KIN) IC50
[5] = end point read at 30 min, 30 min preincubation, read-out: FXIa (EP) IC50
[6] = end point read at 30 min, 30 min preincubation, read-out: Kallikrein (EP) IC50
[7] = kinetic reads at 5 min intervals over 30 min, 30 min preincubation, read-out: Kallikrein (KIN) IC50

Factor XIa, sequence (P03951 388-625 limits assumed): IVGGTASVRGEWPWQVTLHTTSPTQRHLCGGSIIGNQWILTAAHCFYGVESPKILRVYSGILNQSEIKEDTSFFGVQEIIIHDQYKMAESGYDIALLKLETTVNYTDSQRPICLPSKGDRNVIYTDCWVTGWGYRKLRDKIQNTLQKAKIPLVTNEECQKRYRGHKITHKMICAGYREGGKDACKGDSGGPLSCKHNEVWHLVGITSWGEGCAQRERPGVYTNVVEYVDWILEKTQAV
Factor XIa, sequence (P03951 19-387 partner limits assumed): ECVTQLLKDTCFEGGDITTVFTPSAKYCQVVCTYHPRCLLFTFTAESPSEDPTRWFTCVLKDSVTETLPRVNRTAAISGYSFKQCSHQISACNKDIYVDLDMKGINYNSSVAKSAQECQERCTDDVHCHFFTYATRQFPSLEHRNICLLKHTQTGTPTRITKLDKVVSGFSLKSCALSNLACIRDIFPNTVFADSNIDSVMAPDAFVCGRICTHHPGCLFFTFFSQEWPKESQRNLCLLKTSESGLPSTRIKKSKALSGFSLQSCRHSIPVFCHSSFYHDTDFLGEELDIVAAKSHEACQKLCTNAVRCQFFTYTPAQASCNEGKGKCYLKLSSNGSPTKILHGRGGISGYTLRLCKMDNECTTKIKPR

| Structure (SMILES) | IC50 [2, 3] | IC50 [1, 4] | IC50 [2, 7] | also measured |
| --- | --- | --- | --- | --- |
| [O-][n+]1cc(-c2c(-n3cc(C(F)(F)F)nn3)ccc(Cl)c2F)ccc1[C@H](CCOC(F)F)n1cnc(-c2ncnn2C(F)F)c1 [M6, (S)-5-(3-Chloro-2-fluoro-6-(4-(trifluoromethyl)-1H-1,2,3-triazol-1-yl)phenyl)-2-(3-(difluoromethoxy)-1-(4-(1-(difluoromethyl)-1H-1,2,4-triazol-5-yl)-1H-imidazol-1-yl)propyl)pyridine 1-oxide] | > 10 µM | – | – | IC50 ([1]; kinetic reads, unit μM printed in the cell, read-out: FXIa (KIN) IC50): > 10 µM |
| [O-][n+]1cc(-c2c(-n3cnnn3)ccc(Cl)c2F)ccc1[C@H](CCOC(F)F)n1cnc(-c2cnnn2C(F)F)c1 [M13, (S)-5-(3-Chloro-2-fluoro-6-(1H-tetrazol-1-yl)phenyl)-2-(3-(difluoromethoxy)-1-(4-(1-(difluoromethyl)-1H-1,2,3-triazol-5-yl)-1H-imidazol-1-yl)propyl)pyridine 1-oxide] | > 2 µM | > 0.2 µM | – | – |
| O=C(N[C@H]1C[C@H](O)C1)c1ccc(-c2cn(C(CC3CC3)c3ccc(-c4cc(Cl)ccc4-n4cnnn4)c[n+]3[O-])cn2)cc1 (mixture of isomers) [M2, 5-(5-Chloro-2-(1H-tetrazol-1-yl)phenyl)-2-(2-cyclopropyl-1-(4-(4-(((1R,3R)-3-hydroxycyclobutyl)carbamoyl)phenyl)-1H-imidazol-1-yl)ethyl)pyridine 1-oxide] | – | – | – | IC50 [1, 5]: 0.1 µM; IC50 [2, 6]: 1.36 µM |
| [O-][n+]1cc(-c2c(-n3cc(C(F)(F)F)nn3)ccc(Cl)c2F)ccc1[C@@H](CCOC(F)F)n1cnc(-c2ncnn2C(F)F)c1 [M7, (R)-5-(3-Chloro-2-fluoro-6-(4-(trifluoromethyl)-1H-1,2,3-triazol-1-yl)phenyl)-2-(3-(difluoromethoxy)-1-(4-(1-(difluoromethyl)-1H-1,2,4-triazol-5-yl)-1H-imidazol-1-yl)propyl)pyridine 1-oxide] | – | ~0.033 µM | 0.338 µM | – |
| O=C(O)c1ccc(-c2cn(C(CC3CC3)c3ccc(-c4cc(Cl)ccc4-n4cnnn4)c[n+]3[O-])nn2)cc1 (stereo not drawn) [T1, 2-(1-(4-(4-Carboxyphenyl)-1H-1,2,3-triazol-1-yl)-2-cyclopropylethyl)-5-(5-chloro-2-(1H-tetrazol-1-yl)phenyl)pyridine 1-oxide] | – | – | – | IC50 [1, 5]: 0.0016 µM; IC50 [2, 6]: 0.0835 µM |
| [O-][n+]1cc(-c2c(-n3cnnn3)ccc(Cl)c2F)ccc1[C@@H](CCOC(F)F)n1cnc(-c2cnnn2C(F)F)c1 [M14, (R)-5-(3-Chloro-2-fluoro-6-(1H-tetrazol-1-yl)phenyl)-2-(3-(difluoromethoxy)-1-(4-(1-(difluoromethyl)-1H-1,2,3-triazol-5-yl)-1H-imidazol-1-yl)propyl)pyridine 1-oxide] | – | 0.0005 µM | 0.029 µM | – |
| Cn1nncc1-c1cn([C@@H](CCOC(F)F)c2ccc(-c3c(-n4cc(Cl)nn4)ccc(Cl)c3F)c[n+]2[O-])cn1 [M11, (S)-5-(3-Chloro-6-(4-chloro-1H-1,2,3-triazol-1-yl)-2-fluorophenyl)-2-(3-(difluoromethoxy)-1-(4-(1-methyl-1H-1,2,3-triazol-5-yl)-1H-imidazol-1-yl)propyl)pyridine 1-oxide] | > 20 µM | > 0.2 µM | – | – |

Continued, in another order:

| IC50 [2, 3] | IC50 [1, 4] | IC50 [2, 7] | Structure (SMILES) | also measured |
| --- | --- | --- | --- | --- |
| – | 0.0034 µM | 0.312 µM | Cn1nncc1-c1cn([C@H](CC2CC2)c2ccc(-c3c(-n4cnnn4)ccc(Cl)c3F)c[n+]2[O-])nn1 [T6, (R)-5-(3-Chloro-2-fluoro-6-(1H-tetrazol-1-yl)phenyl)-2-(2-cyclopropyl-1-(3′-methyl-1H,3′H-[4,4′-bi(1,2,3-triazol)]-1-yl)ethyl)pyridine 1-oxide] | – |
| – | 0.0318 µM | 0.269 µM | COC(=O)Nc1ccc(-c2cn(C(CC3CC3)c3ccc(-c4c(-n5cnnn5)ccc(Cl)c4F)c[n+]3[O-])nn2)cc1 (single isomer, unassigned) [T3, (R*)-5-(3-Chloro-2-fluoro-6-(1H-tetrazol-1-yl)phenyl)-2-(2-cyclopropyl-1-(4-(4-((methoxycarbonyl)amino)phenyl)-1H-1,2,3-triazol-1-yl)ethyl)pyridine 1-oxide] | – |
